# Source: patent US9487813B2, “Antifungal target” (F2G LTD, priority 2009, dated 2016)
# Tests used:
# A. fumigatus PPTB = target: T1, A. fumigatus PPTB (Aspergillus fumigatus, UniProt Q4W9R0); experiment: fluorescence polarisation PPTB assay / high-throughput screen (CoA-Bodipy TMR transfer to ACP); type: biochemical; settings: IC50 for CoA, assay carried out using unlabelled coenzyme A
# T1 construct: NusA; His tag (vector-encoded, inferred from Ni-NTA purification); made in house; host or cells: E. coli BL21 (DE3)
# T1 sequence (Q4W9R0 1-153): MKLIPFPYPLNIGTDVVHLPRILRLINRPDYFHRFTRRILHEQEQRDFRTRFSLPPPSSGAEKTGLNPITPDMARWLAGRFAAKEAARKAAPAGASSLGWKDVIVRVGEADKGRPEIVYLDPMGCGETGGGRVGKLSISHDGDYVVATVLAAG
# Experimental: High-throughput fluorescent polarization screens for PPTB inhibitors were carried out in black, flat-bottom 384 well plates using the following equipment: Thermo Labsystems Multidrop 384 machine (Multidrop® 384) with dispensing cassette and plate adapter; Tecan Genesis Freedom and Tecan Te—Mo automated liquid handling robot with 235 μl tip head, plus appropriate PC/base unit/software; PerkinElmer Minitrak automated liquid handling robot with 235 μl tip head plus appropriate PC/base unit/software; and PerkinElmer Fusion-Alpha-FP HT plate reading spectrophotometer plus appropriate FP filters (Excitation filter 540 nm; Emission filter 580 nm, both filters with 20 nm bandwidth).
# Buffer A: 62.5 mM Bis-Tris buffer (pH 6.75), 12.5 mM MgCl2. The final concentrations in the assay were 50 mM Bis-Tris and 10 mM MgCl2.
# CoA-Bodipy TMR-ACP mix: 11.6 ml ACP (3.421 mg/ml) plus 1854.7 μl CoA-Bodipy TMR stock (see Section 3.2 above) was made up to 529.9 ml with Buffer A at 4° C.
# PPTB enzyme: PPTB enzyme was typically used at 50 to 100 ng total protein/well; enzyme was used at a concentration that gave reaction linearity with respect to both time and protein concentration. This had to be determined for each enzyme batch. […]
# Assays were carried out in black, flat-bottomed 384-well plates. […] The reaction was terminated by the addition of 25 μl Stop Reagent, after which plates were read in a spectrophotometer. […]
# recombinant PPTB = recombinant PPTB (Aspergillus fumigatus, UniProt Q4W9R0); settings: in the presence of magnesium ions and CoA-Bodipy TMR
# From the text: In the present work PPTB assays used a fluorescently-labelled coenzyme A molecule (CoA-Bodipy TMR), such that PPTB activity transferred the label onto the ACP. The PPTB reaction could therefore be followed by separating the products of the PPTB reaction on an SDS-PAGE gel and illuminating with UV light to see whether the ACP band had become fluorescent. For the high-throughput screen, the PPTB assays used a fluorescence polarisation approach. This measures changes in the orientation of plane-polarized light brought about by fluorophores that undergo significant molecular motion during their fluorescence lifetime. […] The reduction in rotation causes a reduction in the ability of the Bodipy TMR molecule to depolarise plane-polarised light, which can be measured.
# Further experiments were carried out using fluorescence polarization to optimise the PPTB assay for high-throughput screening.
SMILES,IC50 (A. fumigatus PPTB; plates read after 105 hours),IC50 (A. fumigatus PPTB; plates read on day one),effect on the labelling reaction of ACP (recombinant PPTB)
"CC(C)(COP(=O)(O)OP(=O)(O)OC[C@H]1O[C@@H](n2cnc3c(N)ncnc32)[C@H](O)[C@@H]1OP(=O)(O)O)[C@@H](O)C(=O)NCCC(=O)NCCS [CoA, coenzyme A]",5.9 µM,6.02 µM,–
O=C(O)CN(CCN(CC(=O)O)CC(=O)O)CC(=O)O [EDTA],–,–,inhibited
